PubChem BioAssay AID1963979 (Molecular Pharmacology Branch, DTP, NCI, 2024)
Several values for one entry are separate records, joined by “and”; a condition that tells them apart may be missing. Equal entries are not always repeated.

System: 361931-004-R-J1-PDC multicell spheroid viability
Test: Anticancer human tumor 361931-004-R-J1-PDC patient-derived colon adenocarcinoma cell line growth inhibition [PI3K]
Conditions: for viability, T/C: stronger effect = lower value
Text: Combinatorial screen of targeted agents with the PI3K inhibitors inavolisib, alpelisib, duvelisib, and copanlisib in multi-cell type tumor spheroids
A high-throughput screen of multi-cell type tumor spheroids was designed to identify active combinations of targeted small molecules and PI3K pathway inhibitors. Complex spheroids include a stromal component modeled by human endothelial cells (HUVEC) and fibroblasts modeled by human mesenchymal stem cells (MSCs). The concentration ranges selected for each drug and investigational agent were based upon clinically achievable concentrations if the clinical Cmax of the agent was known.
Compounds. The drugs and investigational agents: inavolisib (NSC800729), alpelisib (NSC765974), duvelisib (NSC772469), copanlisib (NSC816437), ipatasertib (NSC767898), afuresertib (NSC778305), talazoparib (NSC767125), sapanisertib (NSC764658), selumetinib (NSC741078), tovorafenib (DAY101, NSC766906), vemurafenib (NSC761431), ravoxertinib (NSC781343), sotorasib (NSC818433), MRTX1133 (NSC 836407), abemaciclib (NSC 768073), palbociclib (NSC758247), venetoclax (NSC 766270), SY5609 (NSC837396), enzalutamide (NSC755605), and darolutamide (NSC825331), were obtained from the National Cancer Institute (NCI) Developmental Therapeutics Program Chemical Repository. The FDA-approved anticancer drug set is available from the NCI Developmental Therapeutics Program. […] The stock solutions were prepared in dimethyl sulfoxide (DMSO, Sigma-Aldrich, St. Louis, MO, cat. D2650) at 800-fold the tested concentration and stored at -70 degrees C prior to their use. All drugs and investigational agents were tested over a range starting from a high concentration at or near the clinical Cmax and decreasing in half-log increments. If the clinical Cmax for an agent had not been determined, the highest concentration tested was 10 microM.
Cell Culture. All cells were maintained in an incubator at 37 degrees C and 5% CO2 with 95% humidity. The PDC lines were cultured according to standard operating procedures established by the NCI PDMR (https://pdmr.cancer.gov/sops/default.htm). All PDCs were thawed and cultured in Matrigel-coated flasks prepared with a working solution of 1X Ham's F-12 nutrient mix, without supplementation (Invitrogen, Waltham, MA, cat. 11765054), 100 U/mL penicillin-streptomycin (Invitrogen, cat. 15140122), and 2.5% Matrigel (Corning Inc., Corning, NY, cat. 354248) for the first three passages. The 354836-022-R-J1-PDC, 475296-252-R-J1-PDC, and 997726-040-R-J2-PDC lines were cultured in 6A media, which includes advanced DMEM/F-12 (Thermo Fisher Scientific, cat. 12634028), 10 mM HEPES (Thermo Fisher Scientific, cat. 15630080), 1X GlutaMAX supplement (Thermo Fisher Scientific, cat. 35050061), 0.1 mg/mL primocin (InvivoGen, San Diego, CA, cat. ant-pm-2), 10% defined fetal bovine serum, heat inactivated (HyClone Laboratories Inc., Logan, UT, cat. SH30070.03HI), 50% L-WRN conditioned media (ATCC, cat. CRL-3276), 1.25 mM N-Acetyl-L-cysteine (Sigma-Aldrich, cat. A9165), 10 mM nicotinamide (Sigma-Aldrich, cat. N0636), 1X B-27 supplement (Thermo Fisher Scientific, cat. 17504044), 1X N-2 supplement (Thermo Fisher Scientific, cat. 17502048), and 10 microM Y-27632 dihydrochloride (Tocris Bioscience, Bristol, United Kingdom, cat. 1254). The 624824-186-R-J2-PDC line was cultured in 6C/Colon 1B media, which includes all 6A media components plus 50 ng/mL human EGF recombinant protein (Thermo Fisher Scientific, cat. PHG0311). […]

[1] = curve of first compound, second compound 0.0316 µM
[2] = curve of first compound, second compound 0.1 µM
[3] = curve of first compound, second compound 0.316 µM
[4] = curve of first compound, second compound 1 µM
[5] = second compound 0.0316 µM, first compound 0.00949 µM
[6] = second compound 0.0316 µM, first compound 0.03 µM
[7] = second compound 0.0316 µM, first compound 0.0949 µM
[8] = second compound 0.0316 µM, first compound 0.3 µM
[9] = second compound 0.0316 µM, first compound 0.949 µM
[10] = second compound 0.0316 µM, first compound 3 µM
[11] = second compound 0.1 µM, first compound 0.00949 µM
[12] = second compound 0.1 µM, first compound 0.03 µM
[13] = second compound 0.1 µM, first compound 0.0949 µM
[14] = second compound 0.1 µM, first compound 0.3 µM
[15] = second compound 0.1 µM, first compound 0.949 µM
[16] = second compound 0.1 µM, first compound 3 µM
[17] = second compound 0.316 µM, first compound 0.00949 µM
[18] = second compound 0.316 µM, first compound 0.03 µM
[19] = second compound 0.316 µM, first compound 0.0949 µM
[20] = second compound 0.316 µM, first compound 0.3 µM
[21] = second compound 0.316 µM, first compound 0.949 µM
[22] = second compound 0.316 µM, first compound 3 µM
[23] = second compound 1 µM, first compound 0.00949 µM
[24] = second compound 1 µM, first compound 0.03 µM
[25] = second compound 1 µM, first compound 0.0949 µM
[26] = second compound 1 µM, first compound 0.3 µM
[27] = second compound 1 µM, first compound 0.949 µM
[28] = second compound 1 µM, first compound 3 µM
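Also: spheroids exposed to agents for seven days before readout.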

Cn1cnc2c(F)c(Nc3ccc(Br)cc3Cl)c(C(=O)NOCCO)cc21 + CC(Nc1ccc2c(c1)OCCn1cc(N3C(=O)OCC3C(F)F)nc1-2)C(N)=O
IC50 (curve of first compound, second compound 0.00316 µM): 2590 nM
IC50 (curve of first compound, second compound 0.01 µM): > 3000 nM
IC50 [1]: 2110 nM
IC50 [2]: 1140 nM
IC50 [3]: 556 nM
IC50 [4]: 158 nM
viability, T/C (second compound 0.00316 µM, first compound 0.00949 µM): 91.9%
viability, T/C (second compound 0.00316 µM, first compound 0.03 µM): 94.6%
viability, T/C (second compound 0.00316 µM, first compound 0.0949 µM): 80.4%
viability, T/C (second compound 0.00316 µM, first compound 0.3 µM): 80.1%
viability, T/C (second compound 0.00316 µM, first compound 0.949 µM): 75%
viability, T/C (second compound 0.00316 µM, first compound 3 µM): 45.5%
viability, T/C (second compound 0.01 µM, first compound 0.00949 µM): 99.4%
viability, T/C (second compound 0.01 µM, first compound 0.03 µM): 92.8%
viability, T/C (second compound 0.01 µM, first compound 0.0949 µM): 81.1%
viability, T/C (second compound 0.01 µM, first compound 0.3 µM): 72.4%
viability, T/C (second compound 0.01 µM, first compound 0.949 µM): 63.8%
viability, T/C (second compound 0.01 µM, first compound 3 µM): 51.9%
viability, T/C [5]: 96.2%
viability, T/C [6]: 92.9%
viability, T/C [7]: 83.8%
viability, T/C [8]: 70.4%
viability, T/C [9]: 62%
viability, T/C [10]: 45%
viability, T/C [11]: 90.8%
viability, T/C [12]: 83.3%
viability, T/C [13]: 76.1%
viability, T/C [14]: 73.2%
viability, T/C [15]: 53.8%
viability, T/C [16]: 28.5%
viability, T/C [17]: 86%
viability, T/C [18]: 82.8%
viability, T/C [19]: 63.9%
viability, T/C [20]: 62.4%
viability, T/C [21]: 43.8%
viability, T/C [22]: 14.7%
viability, T/C [23]: 72.8%
viability, T/C [24]: 57.3%
viability, T/C [25]: 57.1%
viability, T/C [26]: 46.4%
viability, T/C [27]: 26.2%
viability, T/C [28]: 8.6%

Cn1cnc2c(F)c(Nc3ccc(Br)cc3Cl)c(C(=O)NOCCO)cc21 + CC(Nc1ncnc2nc[nH]c12)c1cc2cccc(Cl)c2c(=O)n1-c1ccccc1
IC50 [1]: > 3000 nM
IC50 [2]: > 3000 nM
IC50 [3]: > 3000 nM
IC50 [4]: > 3000 nM
IC50 (curve of first compound, second compound 3.16 µM): 2880 nM
IC50 (curve of first compound, second compound 10 µM): 1670 nM
viability, T/C [5]: 98.1%
viability, T/C [6]: 95.3%
viability, T/C [7]: 94%
viability, T/C [8]: 87.4%
viability, T/C [9]: 82%
viability, T/C [10]: 59.1%
viability, T/C [11]: 109%
viability, T/C [12]: 96.2%
viability, T/C [13]: 94.2%
viability, T/C [14]: 82.9%
viability, T/C [15]: 87.4%
viability, T/C [16]: 61.7%
viability, T/C [17]: 105%
viability, T/C [18]: 102%
viability, T/C [19]: 88.8%
viability, T/C [20]: 85.8%
viability, T/C [21]: 82.9%
viability, T/C [22]: 58.1%
viability, T/C [23]: 97.9%
viability, T/C [24]: 94.4%
viability, T/C [25]: 93.3%
viability, T/C [26]: 79.5%
viability, T/C [27]: 81.4%
viability, T/C [28]: 59.7%
viability, T/C (second compound 3.16 µM, first compound 0.00949 µM): 92.8%
viability, T/C (second compound 3.16 µM, first compound 0.03 µM): 96.2%
viability, T/C (second compound 3.16 µM, first compound 0.0949 µM): 90.9%
viability, T/C (second compound 3.16 µM, first compound 0.3 µM): 91.3%
viability, T/C (second compound 3.16 µM, first compound 0.949 µM): 77%
viability, T/C (second compound 3.16 µM, first compound 3 µM): 48.9%
viability, T/C (second compound 10 µM, first compound 0.00949 µM): 99.1%
viability, T/C (second compound 10 µM, first compound 0.03 µM): 92.4%
viability, T/C (second compound 10 µM, first compound 0.0949 µM): 86.9%
viability, T/C (second compound 10 µM, first compound 0.3 µM): 85.2%
viability, T/C (second compound 10 µM, first compound 0.949 µM): 66.5%
viability, T/C (second compound 10 µM, first compound 3 µM): 33%

CC(Cn1ccc(-c2ccc(C#N)c(Cl)c2)n1)NC(=O)c1cc(C(C)O)[nH]n1 (stereo not drawn)
viability, T/C (compound 0.0316 µM): 104% [middle of 4 runs]
viability, T/C (compound 0.1 µM): 97.2% [middle of 4 runs]
viability, T/C (compound 0.316 µM): 105% [middle of 4 runs]
viability, T/C (compound 1 µM): 104% [middle of 4 runs]
viability, T/C (compound 3.16 µM): 102% [middle of 4 runs]
viability, T/C (compound 10 µM): 106% [middle of 4 runs]
IC50 (curve of compound): > 10000 nM

CNC(=O)c1ccc(N2C(=S)N(c3ccc(C#N)c(C(F)(F)F)c3)C(=O)C2(C)C)cc1F
viability, T/C (compound 0.0316 µM): 101% [middle of 4 runs]
viability, T/C (compound 0.1 µM): 101% [middle of 4 runs]
viability, T/C (compound 0.316 µM): 104% [middle of 4 runs]
viability, T/C (compound 1 µM): 110% and 103% (2×) and 102%
viability, T/C (compound 3.16 µM): 98.6% [middle of 4 runs]
viability, T/C (compound 10 µM): 92.4% [middle of 4 runs]
IC50 (curve of compound): > 10000 nM
